Measurements published in patent publication US20230025067A1, “SOLID LOW FOAMING IN DISSOLUTION AND LOW PH ALL-PURPOSE CLEANER AND DISINFECTANT COMPOSITIONS” (Reckitt Benckiser LLC, priority 2021, published 2023).

Tests used:
[1] = Tableting and stability of R&D formulations with other citric acid grades; format: physicochemical; settings: R&D formulations similar to Formula E1
germ = test: R&D germ kill testing of aqueous citric acid solutions; format: cell-based; settings: aqueous solutions containing 2.5% w/v
Excerpt: As discussed above, lemon juice contains 5-8% citric acid, amongst other potentially disinfecting ingredients like malic acid, ascorbic acid, and essential oils.

Staphyloccocus aureus = settings: 1 mg/mL solution in a 20% dimethyl sulfoxide water solution; cited from earlier work

| Compound | suitability for tablet formulation (hygroscopicity, tableting) [1] | germ kill results (germ) | activity against Staphyloccocus aureus (Staphyloccocus aureus) |
| --- | --- | --- | --- |
| O=C(O)CC(O)(CC(=O)O)C(=O)O [Citric acid anhydrous, citric acid anhydrous] | too hygroscopic for use in a tablet formulation | – | – |
| O=C(O)CC(O)(CC(=O)O)C(=O)O [citric acid] | – | did not produce consistent or satisfactory germ kill results | inactive |
